Values of other authors in PMC9034292 (The Journal of Biological Chemistry, 2022).

What was measured:
[1] = tested on: HIV-1 RT–associated RNase H
[2] = one divalent cation-coordinating ion

Row | Compound | Inhibition of HIV RNase H [1] | Manner of inhibition of HIV-1 RT–associated RNase H [1] | Inhibition of HBV RNase H (HBV RNase H) | Kd [2] [µM] | logK (stability constant) [2]
1 | CC(C)c1ccc(O)c(=O)c(O)c1 [β-thujaplicinol] | inhibits | reversible noncompetitive | inhibits | – | –
2 | dihydroxytropylium ion | – | – | – | 150 | 3.82
